According to patent publication US11186566B2, “Modulator of cystic fibrosis transmembrane conductance regulator, pharmaceutical compositions, methods of treatment, and process for making the modulator” (Vertex Pharmaceuticals Incorporated, priority 2016, dated 2021):

Biological target: F508del-CFTR (Homo sapiens (Human), UniProt P13569, DEL508-508)
Test: Membrane potential optical (fluorescent voltage sensing dye, FLIPR III) HTS assay for F508del-CFTR modulators
Format: cell-based
Details: F508del NIH 3T3 cells, assay 5A-A1; read-out: CFTRdF508 EC50
From the text: Membrane Potential Optical Methods for Assaying Properties of F508del-CFTR Modulators
The assay utilizes fluorescent voltage sensing dyes to measure changes in membrane potential using a fluorescent plate reader (e.g., FLIPR III, Molecular Devices, Inc.) as a readout for increase in functional F508del in NIH 3T3 cells.
5A-A1. Identification of F508Del-CFTR Modulators
To identify modulators of F508del, a fluorescence based HTS assay format was developed. This HTS assay utilizes fluorescent voltage sensing dyes to measure changes in membrane potential on the FLIPR III as a measurement for increase in gating (conductance) of F508del NIH 3T3 cells.
(in mM) NaCl 160, KCl 4.5, CaCl2 2, MgCl2 1, HEPES 10, pH 7.4 with NaOH, Glucose 10.
Chloride salts in Bath Solution #1 (above) are substituted with gluconate salts.
NIH3T3 mouse fibroblasts stably expressing F508del are used for optical measurements of membrane potential. The cells are maintained at 37° C. in 5% CO2 and 90% humidity in Dulbecco's modified Eagle's medium supplemented with 2 mM glutamine, 10% fetal bovine serum, 1×NEAA, β-ME, 1×pen/strep, and 25 mM HEPES in 175 cm^2 culture flasks. For all optical assays, the cells were seeded at 12,000 cells/well in 384-well matrigel-coated plates and cultured for 18-24 hrs at 37° C. for the potentiator assay. For the correction assays, the cells are cultured at 37° C. with and without compounds for 18-24 hours.

Chain of F508del-CFTR (P13569 other isoform, or with tags, fused parts or gaps del F508-F508): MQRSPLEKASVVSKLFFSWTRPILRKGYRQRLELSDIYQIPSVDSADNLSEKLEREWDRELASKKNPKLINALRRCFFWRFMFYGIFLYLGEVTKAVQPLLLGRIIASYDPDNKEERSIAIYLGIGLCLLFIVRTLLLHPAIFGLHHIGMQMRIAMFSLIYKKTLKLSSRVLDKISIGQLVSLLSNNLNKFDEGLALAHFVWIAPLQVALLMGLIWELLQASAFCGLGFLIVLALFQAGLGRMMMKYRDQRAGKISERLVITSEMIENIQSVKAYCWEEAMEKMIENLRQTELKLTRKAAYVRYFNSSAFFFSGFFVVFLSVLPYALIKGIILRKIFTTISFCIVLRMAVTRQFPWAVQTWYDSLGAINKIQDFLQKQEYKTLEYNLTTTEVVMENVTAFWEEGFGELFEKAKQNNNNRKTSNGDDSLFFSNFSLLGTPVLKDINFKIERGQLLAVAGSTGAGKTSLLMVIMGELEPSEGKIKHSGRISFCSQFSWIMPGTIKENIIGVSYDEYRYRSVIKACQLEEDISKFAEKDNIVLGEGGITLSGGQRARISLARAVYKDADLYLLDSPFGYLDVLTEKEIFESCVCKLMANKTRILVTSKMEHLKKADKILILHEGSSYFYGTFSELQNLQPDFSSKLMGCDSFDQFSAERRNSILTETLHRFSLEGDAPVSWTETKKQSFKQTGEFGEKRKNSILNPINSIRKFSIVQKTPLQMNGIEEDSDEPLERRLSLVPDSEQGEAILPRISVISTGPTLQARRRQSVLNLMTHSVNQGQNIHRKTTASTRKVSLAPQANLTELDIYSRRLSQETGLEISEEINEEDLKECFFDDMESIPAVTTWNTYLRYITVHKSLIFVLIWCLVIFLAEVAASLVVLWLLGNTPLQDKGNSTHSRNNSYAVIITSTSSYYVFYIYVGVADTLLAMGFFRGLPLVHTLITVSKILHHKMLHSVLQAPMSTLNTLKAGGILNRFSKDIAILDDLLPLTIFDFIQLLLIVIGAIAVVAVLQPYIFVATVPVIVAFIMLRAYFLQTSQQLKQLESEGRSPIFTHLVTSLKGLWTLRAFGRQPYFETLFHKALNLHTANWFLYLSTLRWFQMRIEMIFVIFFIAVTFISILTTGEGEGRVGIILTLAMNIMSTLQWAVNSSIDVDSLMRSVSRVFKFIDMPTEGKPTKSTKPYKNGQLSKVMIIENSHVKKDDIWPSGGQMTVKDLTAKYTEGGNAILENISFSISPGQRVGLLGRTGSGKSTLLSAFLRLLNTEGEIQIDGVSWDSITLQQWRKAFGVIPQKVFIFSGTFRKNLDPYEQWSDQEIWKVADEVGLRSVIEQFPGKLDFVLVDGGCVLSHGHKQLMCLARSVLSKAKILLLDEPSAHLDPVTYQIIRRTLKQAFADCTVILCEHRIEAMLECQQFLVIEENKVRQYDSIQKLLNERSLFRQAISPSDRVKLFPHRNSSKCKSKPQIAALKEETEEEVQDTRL

Row | Structure (SMILES) | EC50 [nM]
1 | C[C@@H]1CN(c2nc(-n3ccc(O[C@@H]4C[C@H]4C(F)(F)F)n3)ccc2C(=O)NS(=O)(=O)c2ccccc2)C(C)(C)C1 (racemic) [Compound 19, N-(Benzenesulfonyl)-6-[3-[(trans)-2-(trifluoromethyl)cyclopropoxy]pyrazol-1-yl]-2-[(4S)-2,2,4-trimethylpyrrolidin-1-yl]pyridine-3-carboxamide] | 100 to 1000
2 | C[C@@H]1CN(c2nc(-n3ccc(OCC4(C(F)(F)F)CC4)n3)ccc2C(=O)NS(=N)(=O)c2ccccc2)C(C)(C)C1 (single isomer, unassigned) [Compound 46] | < 100
3 | COc1cc(S(=O)(=O)NC(=O)c2ccc(-n3ccc(OCCC4(C(F)(F)F)CC4)n3)nc2N2C[C@@H](C)CC2(C)C)ccc1O [Compound 3, (S)—N-((4-Hydroxy-3-methoxyphenyl)sulfonyl)-6-(3-(2-(1-(trifluoromethyl)cyclopropyl)ethoxy)-1H-pyrazol-1-yl)-2-(2,2,4-trimethylpyrrolidin-1-yl)nicotinamide] | < 100
4 | Cc1ccccc1S(=O)(=O)NC(=O)c1ccc(-n2ccc(OCC3C4(CC4)C34CC4)n2)nc1N1C[C@@H](C)CC1(C)C [Compound 8, 6-[3-(Dispiro[2.0.2^4.1^3]heptan-7-ylmethoxy)pyrazol-1-yl]-N-(o-tolylsulfonyl)-2-[(4S)-2,2,4-trimethylpyrrolidin-1-yl]pyridine-3-carboxamide] | < 100
5 | CC1(C)CC(CO)CN1c1nc(-n2ccc(OCCC3(C(F)(F)F)CC3)n2)ccc1C(=O)NS(=O)(=O)c1ccccc1 (stereo not shown) [Compound 9, N-(Benzenesulfonyl)-2-[4-(hydroxymethyl)-2,2-dimethyl-pyrrolidin-1-yl]-6-[3-[2-[1-(trifluoromethyl)cyclopropyl]ethoxy]pyrazol-1-yl]pyridine-3-carboxamide] | 100 to 1000
6 | Cc1cc(C#N)ccc1S(=O)(=O)NC(=O)c1ccc(-n2ccc(OCC3(C(F)(F)F)CC3)n2)nc1N1C[C@@H](C)CC1(C)C [Compound 11, N-(4-Cyano-2-methyl-phenyl)sulfonyl-6-[3-[[1-(trifluoromethyl)cyclopropyl]methoxy]pyrazol-1-yl]-2-[(4S)-2,2,4-trimethylpyrrolidin-1-yl]pyridine-3-carboxamide] | 100 to 1000
7 | COc1cc(C)ccc1S(=O)(=O)NC(=O)c1ccc(-n2ccc(OCC3(C(F)(F)F)CC3)n2)nc1N1C[C@@H](C)CC1(C)C [Compound 12, N-(2-Methoxy-4-methyl-phenyl)sulfonyl-6-[3-[[1-(trifluoromethyl)cyclopropyl]methoxy]pyrazol-1-yl]-2-[(4S)-2,2,4-trimethylpyrrolidin-1-yl]pyridine-3-carboxamide] | < 100
8 | [2H]C([2H])([2H])[C@@H]1CN(c2nc(-n3ccc(OCCC4(C(F)(F)F)CC4)n3)ccc2C(=O)NS(=O)(=O)c2ccccc2)C(C)(C)C1([2H])[2H] [Compound 17, N-(Benzenesulfonyl)-2-[(4S)-3,3-dideuterio-2,2-dimethyl-4-(trideuteriomethyl)pyrrolidin-1-yl]-6-[3-[2-[1-(trifluoromethyl)cyclopropyl]ethoxy]pyrazol-1-yl]pyridine-3-carboxamide] | < 100
9 | C[C@@H]1CN(c2nc(-n3ccc(OCC4(C(F)(F)F)CC4)n3)ccc2C(=O)NS(=O)(=O)c2ccccc2O)C(C)(C)C1 [Compound 20, N-(2-Hydroxyphenyl)sulfonyl-6-[3-[[1-(trifluoromethyl)cyclopropyl]methoxy]pyrazol-1-yl]-2-[(4S)-2,2,4-trimethylpyrrolidin-1-yl]pyridine-3-carboxamide] | 100 to 1000
10 | C[C@@H]1CN(c2nc(-n3ccc(OCC4(C(F)(F)F)CC4)n3)ccc2C(=O)NS(=O)(=O)c2cccc(O)c2)C(C)(C)C1 [Compound 21, N-(3-Hydroxyphenyl)sulfonyl-6-[3-[[1-(trifluoromethyl)cyclopropyl]methoxy]pyrazol-1-yl]-2-[(4S)-2,2,4-trimethylpyrrolidin-1-yl]pyridine-3-carboxamide] | < 100
11 | C[C@@H]1CN(c2nc(-n3ccc(OCC4(C(F)(F)F)CC4)n3)ccc2C(=O)NS(=O)(=O)c2ccccc2C#N)C(C)(C)C1 [Compound 26, N-(2-Cyanophenyl)sulfonyl-6-[3-[[1-(trifluoromethyl)cyclopropyl]methoxy]pyrazol-1-yl]-2-[(4S)-2,2,4-trimethylpyrrolidin-1-yl]pyridine-3-carboxamide] | > 1000
12 | C[C@@H]1CN(c2nc(-n3ccc(OCCC4(C(F)(F)F)CC4)n3)ccc2C(=O)NS(=O)(=O)c2ccccc2O)C(C)(C)C1 [Compound 34, N-(2-hydroxyphenyl)sulfonyl-6-[3-[2-[1-(trifluoromethyl)cyclopropyl]ethoxy]pyrazol-1-yl]-2-[(4S)-2,2,4-trimethylpyrrolidin-1-yl]pyridine-3-carboxamide] | < 100
13 | C[C@@H]1CN(c2nc(-n3ccc(OCCC4(C(F)(F)F)CC4)n3)ccc2C(=O)NS(=O)(=O)c2cccc(O)c2)C(C)(C)C1 [Compound 35, N-(3-Hydroxyphenyl)sulfonyl-6-[3-[2-[1-(trifluoromethyl)cyclopropyl]ethoxy]pyrazol-1-yl]-2-[(4S)-2,2,4-trimethylpyrrolidin-1-yl]pyridine-3-carboxamide] | < 100
14 | [2H]C([2H])(Oc1ccn(-c2ccc(C(=O)NS(=O)(=O)c3ccccc3)c(N3C[C@@H](C)CC3(C)C)n2)n1)C1C(C)(C)C1(C)C [Compound 36, N-(Benzenesulfonyl)-6-[3-[dideuterio-(2,2,3,3-tetramethylcyclopropyl)methoxy]pyrazol-1-yl]-2-[(4S)-2,2,4-trimethylpyrrolidin-1-yl]pyridine-3-carboxamide] | < 100
15 | C[C@@H]1CN(c2nc(-n3ccc(OCC(O)C4(C(F)(F)F)CC4)n3)ccc2C(=O)NS(=O)(=O)c2ccccc2)C(C)(C)C1 (stereo partly drawn) [Compound 38, N-(Benzenesulfonyl)-6-[3-[2-hydroxy-2-[1-(trifluoromethyl)cyclopropyl]ethoxy]pyrazol-1-yl]-2-[(4S)-2,2,4-trimethylpyrrolidin-1-yl]pyridine-3-carboxamide] | 100 to 1000
16 | C[C@@H]1CN(c2nc(-n3ccc(OCC4(C(F)(F)F)CC4)n3)ccc2C(=O)NS(=N)(=O)c2ccccc2)C(C)(C)C1 (stereo partly drawn) [Compound 45, N-(amino(oxo)(phenyl)-λ^6-sulfaneylidene)-6-(3-((1-(trifluoromethyl)cyclopropyl)methoxy)-1H-pyrazol-1-yl)-2-((S)-2,2,4-trimethylpyrrolidin-1-yl)nicotinamide] | 100 to 1000

Second part, the compound after the results:

Row | EC50 [nM] | Structure (SMILES)
17 | 100 to 1000 | C[C@@H]1CN(c2nc(-n3ccc(O[C@@H]4C[C@@H]4C(F)(F)F)n3)ccc2C(=O)NS(=O)(=O)c2ccccc2)C(C)(C)C1 (racemic) [Compound 18, N-(Benzenesulfonyl)-6-[3-[(cis)-2-(trifluoromethyl)cyclopropoxy]pyrazol-1-yl]-2-[(4S)-2,2,4-trimethylpyrrolidin-1-yl]pyridine-3-carboxamide]
18 | 100 to 1000 | C[C@H]1CN(c2nc(-n3ccc(OCCC4(C(F)(F)F)CC4)n3)ccc2C(=O)NS(=O)(=O)c2ccccc2)C(C)(C)C1 [Compound 2, (R)—N-(Phenylsulfonyl)-6-(3-(2-(1-(trifluoromethyl)cyclopropyl)ethoxy)-1H-pyrazol-1-yl)-2-(2,2,4-trimethylpyrrolidin-1-yl)nicotinamide]
19 | < 100 | C[C@@H]1CN(c2nc(-n3ccc(OCC4(C(F)(F)F)CC4)n3)ccc2C(=O)NS(=O)(=O)c2cccc(C#N)c2)C(C)(C)C1 [Compound 25, N-(3-Cyanophenyl)sulfonyl-6-[3-[[1-(trifluoromethyl)cyclopropyl]methoxy]pyrazol-1-yl]-2-[(4S)-2,2,4-trimethylpyrrolidin-1-yl]pyridine-3-carboxamide]
20 | > 1000 | C[C@@H]1CN(c2nc(-n3ccc(OC4CC4)n3)ccc2C(=O)NS(=O)(=O)c2ccccc2)C(C)(C)C1 [Compound 48, N-(Benzenesulfonyl)-6-[3-(cyclopropoxy)pyrazol-1-yl]-2-[(4S)-2,2,4-trimethylpyrrolidin-1-yl]pyridine-3-carboxamide]
21 | < 100 | C[C@@H]1CN(c2nc(-n3ccc(OCC4(C(F)(F)F)CC4)n3)ccc2C(=O)NS(=O)(=O)c2ccc(F)cc2)C(C)(C)C1 [Compound 52, N-(4-fluorophenyl)sulfonyl-6-[3-[[1-(trifluoromethyl)cyclopropyl]methoxy]pyrazol-1-yl]-2-[(4S)-2,2,4-trimethylpyrrolidin-1-yl]pyridine-3-carboxamide]
22 | < 100 | COc1ccc(S(=O)(=O)NC(=O)c2ccc(-n3ccc(OCC4(C(F)(F)F)CC4)n3)nc2N2C[C@@H](C)CC2(C)C)cc1 [Compound 54, N-(4-methoxyphenyl)sulfonyl-6-[3-[[l-(trifluoromethyl)cyclopropyl]methoxy]pyrazol-1-yl]-2-[(4S)-2,2,4-trimethylpyrrolidin-1-yl]pyridine-3-carboxamide]
23 | 100 to 1000 | CC1(C)CN(c2nc(-n3ccc(OCC4(C(F)(F)F)CC4)n3)ccc2C(=O)NS(=O)(=O)c2ccccc2)C(C)(C)C1 [Compound 56, N-(Benzenesulfonyl)-2-(2,2,4,4-tetramethylpyrrolidin-1-yl)-6-[3-[[1-(trifluoromethyl)cyclopropyl]methoxy]pyrazol-1-yl]pyridine-3-carboxamide]

Same assay, conditions: Table 7, Compound 1 and metabolites; read-out: CFTRdF508 EC50

Row | EC50 [nM] | Structure (SMILES)
24 | 90 | C[C@@H]1CN(c2nc(-n3ccc(OCCC4(C(F)(F)F)CC4)n3)ccc2C(=O)NS(=O)(=O)c2ccccc2O)C(C)(C)C1 [Compound 34, N-(2-hydroxyphenyl)sulfonyl-6-[3-[2-[1-(trifluoromethyl)cyclopropyl]ethoxy]pyrazol-1-yl]-2-[(4S)-2,2,4-trimethylpyrrolidin-1-yl]pyridine-3-carboxamide]
25 | 240 | C[C@@H]1CN(c2nc(-n3ccc(OCC(O)C4(C(F)(F)F)CC4)n3)ccc2C(=O)NS(=O)(=O)c2ccccc2)C(C)(C)C1 (stereo partly drawn) [Compound 38, N-(Benzenesulfonyl)-6-[3-[2-hydroxy-2-[1-(trifluoromethyl)cyclopropyl]ethoxy]pyrazol-1-yl]-2-[(4S)-2,2,4-trimethylpyrrolidin-1-yl]pyridine-3-carboxamide]
